From patent US20240124483A1, “Methods for the Treatment of Fibrotic Disease” (SHY Therapeutics, LLC, priority 2021, published 2024)
pIC50: −log10 of the molar value. Like-named read-outs stand apart in the source and are kept apart here.

Tests used:
Smad2/3 phosphorylation = test: Phospho-Smad2/3 Inhibition Assay in Panc-1 (western blot); type: cell-based; settings: Homo sapiens; for inhibition at 10 µM: 3 hours, PANC-1 stimulated with 10 ng/ml TGF-b1 for 1 hour, read-out: % inh of Smad2/3 phosphorylation in PANC-1
Procedure: Cell lines: Human tumor-derived pancreatic cancer cell line Panc-1 and mouse muscle myoblast C2C12 were purchased from American Type Culture Collection and grown in complete DMEM-High Glucose, supplemented with penicillin (100 U/mL), streptomycin (100 μg/mL), and 10% heat-inactivated FBS at 37° C. in a humidified incubator with 5% CO2.
Method: Cells were plated at 350000 cells/well density in a 12-well plate, allowed 3 hours to adhere to the plate, then starved in the appropriate medium in the presence of 0.5% FBS overnight. The small molecules to be tested were added to the cells in the final concentration of 10 μM in the presence of 0.3% DMSO for 3 hours incubation at 37° C. For IC50 value determination, serial dilutions of compounds were added to cells under the same conditions. Next, Panc-1 cells were stimulated with 10 ng/ml TGF-b1 for 1 hour, and C2C12 cells were stimulated with 10 ng/ml TGF-b1 for 20 minutes (recombinant human TGF-b1, R&D Systems). After stimulation cells were lysed with lysis buffer containing 1% Triton X-100, EDTA, and Halt™ Protease & Phosphatase Inhibitor Cocktail (Thermo Scientific). Protein concentration was assessed by BCA protein assay (Thermo Scientific). Phosphorylation level of Smad2/Smad3 was determined by western blot.
Western blot protocol: Equal amounts of protein (15-50 μg) were separated by SDS-PAGE and transferred to nitrocellulose membranes (Invitrogen by Thermo Fisher Scientific). The membrane was stained with Ponceau S Stain (Boston BioProducts) to verify uniform protein loading. Membranes were blocked with 10% milk and phosphorylation levels of Smad2/Smad3 were assessed by incubating overnight at 4° C. with the following antibodies: Phospho-Smad2 (Ser465/467) and Phosph-Smad3 (Ser423/425), both from Cell Signaling Technology. Then the membranes were incubated with HRP-conjugated secondary antibody (Jackson Immunoresearch, West Grove, PA). Bands were incubated in Amersham ECL Prime Western Blotting Detection Reagent (GE Healthcare) and visualized using the ChemiDoc MP imaging system (Bio-Rad).

KRas G12D mutant = KRas G12D mutant (Homo sapiens (Human), UniProt P01116, G12D); test: Ras GTP Binding Domain Inhibition Assay, KRas G12D mutant; settings: for inhibition at 20 µM: Table 7; for KRas G12D mutant + SOS: % inh. / KRas G12D mutant: % inh.: 20 uM, Table 8
Procedure: (§1) A Ras Superfamily Activity Assay (as disclosed in International Application No. PCT/US2018/038613, filed Jun. 20, 2018, which is incorporated by reference in its entirety) was used as a specific assay to evaluate compounds against the following for the following Ras Superfamily proteins: KRas wild type, KRas Q61H mutant, KRas G12C mutant, KRas G12D mutant, Rac-1, and Rho-A.
(§2) Buffer-I: • 25 mM Tris-HCl, pH 7.4 • 27 mM KCl • 137 mM NaCl • 1 mM MgCl2 • 1 mM DTT
(§3) Buffer-II: • 50 mM Tris-HCl, pH 7.0 • 1 mM MgCl2 • 1 mM DTT
(§4) The small GTPases proteins: KRas wild type. KRas Q61H mutant, KRas G12C mutant, KRas G12D mutants, Rac-1, and Rho-A were expressed as His-tagged proteins. In addition, the Guanosine nucleotide Exchange Factor (GEF) Sos protein (residues 556-1049) was expressed as a His-tagged protein. In cells, the guanine nucleotide exchange factor Sos protein promotes activation of Ras proteins by stimulating an exchange of GDP for GTP. The inclusion of Sos to the Ras GTP binding domain inhibition assay may be considered as an alternative representation of physiological cellular conditions for evaluating the inhibitory activity of some of the tested small molecules.
(§5) For the assay, all purified small GTPases proteins were diluted in Buffer-I or Buffer-II to a final concentration of 10-30 μg/mL. 200 μL of each diluted protein was added to a nickel-coated 96-well plate and incubated overnight at 4° C. Then the protein solution was discarded and 200 μL of Buffer-I or Buffer-II was added to each well in the presence of 1% DMSO. Compounds to be tested were added to the protein-coated wells at final concentration of 20 μM, and incubated for 3 hours at room temperature with and without 10-30 μg/mL of Sos added to the final hour of the incubation. When performing IC50 measurements a serial dilution of all tested concentrations was added. Then Cy3-GTP or Cy5-GTP was added to each well to a final concentration of 100 nM. The labeled GTP was incubated for 45 minutes at room temperature. Following GTP incubation, wells were washed 3× in Buffer-I or Buffer-II and 200 μL of Buffer-I or Buffer-II was added to each well. Following washes, the amount of bound labeled-GTP was measured using a SpectraMax M3 (Molecular Devices).

KRas G12C mutant = KRas G12C mutant (Homo sapiens (Human), UniProt P01116, G12C); test: Ras GTP Binding Domain Inhibition Assay, KRas G12C mutant
Procedure: as §1, §2, §3, §4, §5

Rac-1 = Rac-1 (Homo sapiens (Human), UniProt P63000); test: Ras GTP Binding Domain Inhibition Assay, Rac-1
Procedure: as §1, §2, §3, §4, §5

Rho-A = Rho-A (Homo sapiens (Human), UniProt P61586); test: Ras GTP Binding Domain Inhibition Assay, Rho-A
Procedure: as §1, §2, §3, §4, §5

[1] = + SOS, read-out: KRas G12D mutant + SOS: % inh.
[2] = without SOS, read-out: KRas G12D mutant: % inh.
[3] = + SOS, read-out: KRas G12C mutant + SOS: % inh.
[4] = without SOS, read-out: KRas G12C mutant: % inh.
[5] = + SOS, read-out: Rac-1 + SOS: % inh.
[6] = without SOS, read-out: Rac-1: % inh.
[7] = + SOS, read-out: Rho-A + SOS: % inh.
[8] = without SOS, read-out: Rho-A: % inh.

Sequence of Rho-A (P61586 whole entry, species assumed, the tested form may be a part): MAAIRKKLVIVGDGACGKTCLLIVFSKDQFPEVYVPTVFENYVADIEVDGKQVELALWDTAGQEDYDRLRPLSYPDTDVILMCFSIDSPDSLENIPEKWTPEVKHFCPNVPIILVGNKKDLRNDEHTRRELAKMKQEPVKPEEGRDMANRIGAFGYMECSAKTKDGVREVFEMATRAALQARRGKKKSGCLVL
Sequence of KRas G12C mutant (P01116 other isoform, or with tags, fused parts or gaps G12C): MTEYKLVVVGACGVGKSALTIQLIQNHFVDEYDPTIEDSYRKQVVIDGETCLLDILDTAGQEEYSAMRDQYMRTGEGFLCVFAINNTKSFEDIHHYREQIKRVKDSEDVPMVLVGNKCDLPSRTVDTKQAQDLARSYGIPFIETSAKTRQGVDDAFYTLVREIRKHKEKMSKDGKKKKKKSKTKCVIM
Sequence of KRas G12D mutant (P01116 other isoform, or with tags, fused parts or gaps G12D): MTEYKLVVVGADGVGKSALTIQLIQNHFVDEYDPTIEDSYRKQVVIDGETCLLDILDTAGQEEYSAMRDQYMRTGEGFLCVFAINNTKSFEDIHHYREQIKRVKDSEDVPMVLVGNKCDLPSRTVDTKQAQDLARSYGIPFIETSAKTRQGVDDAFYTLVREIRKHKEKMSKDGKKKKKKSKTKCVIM

Structure (SMILES) | pIC50 (Smad2/3 phosphorylation; PANC-1, TGF-b1 stimulated) | inhibition at 20 µM (KRas G12D mutant; [1]) | KRas G12D mutant + SOS: % inh. (KRas G12D mutant; + SOS) | inhibition at 20 µM (KRas G12D mutant; [2]) | KRas G12D mutant: % inh. (KRas G12D mutant; without SOS) | inhibition at 20 µM (KRas G12C mutant; [3]) | inhibition at 20 µM (KRas G12C mutant; [4]) | inhibition at 20 µM (Rac-1; [5]) | inhibition at 20 µM (Rac-1; [6]) | inhibition at 20 µM (Rho-A; [7]) | inhibition at 20 µM (Rho-A; [8]) | inhibition at 10 µM (Smad2/3 phosphorylation)
CO[C@H]1CC[C@@H](Nc2nc(-c3nccn3C)nc3sc(-c4ccn(C)n4)c(-c4ccccc4)c23)C1 (racemic) [Compound 5, rac-N-((1R,3S)-3-Methoxycyclopentyl)-2-(1-methyl-1H-imidazol-2-yl)-6-(1-methyl-1H-pyrazol-3-yl)-5-phenylthieno[2,3-d]pyrimidin-4-amine] | 5.00 to 5.30 | 46 to 75% | C (C = 46-75% inhibition) | 1 to 25% | A (A = 1-25% inhibition) | 76 to 100% | 26 to 45% | 46 to 75% | 46 to 75% | 76 to 100% | 46 to 75% | 76 to 100%
COc1cccc(-c2sc3nc(-c4nccn4C)nc(NC4CCC(OC)C4)c3c2C)c1F (racemic) [Compound 10, rac-6-(2-Fluoro-3-methoxyphenyl)-N-((1R,3S)-3-methoxycyclopentyl)-5-methyl-2-(1-methyl-1H-imidazol-2-yl)thieno[2,3-d]pyrimidin-4-amine and rac-6-(2-Fluoro-3-methoxyphenyl)-N-((1R,3R)-3-methoxycyclopentyl)-5-methyl-2-(1-methyl-1H-imidazol-2-yl)thieno[2,3-d]pyrimidin-4-amine] |  | 46 to 75% | C (C = 46-75% inhibition) | 76 to 100% | D (D = 76-100% inhibition) | 46 to 75% | 76 to 100% | 46 to 75% | 46 to 75% | 76 to 100% | 76 to 100% | 1 to 25%
CO[C@H]1CC[C@@H](Nc2nc(-c3nccn3C)nc3sc(-c4ccn(C(C)C)n4)c(C)c23)C1 (racemic) [Compound 12, rac-6-(1-Isopropyl-1H-pyrazol-3-yl)-N-((1R,3S)-3-methoxycyclopentyl)-5-methyl-2-(1-methyl-1H-imidazol-2-yl)thieno[2,3-d]pyrimidin-4-amine] |  | 46 to 75% | C (C = 46-75% inhibition) | 46 to 75% | C (C = 46-75% inhibition) | 76 to 100% | 46 to 75% | 46 to 75% | 46 to 75% | 76 to 100% | 76 to 100% | 1 to 25%
COC1CCCN(c2nc(-c3nccn3C)nc3sc(-c4ccn(C(C)C)n4)c(C)c23)C1 (racemic) [Compound 14, rac-6-(1-Isopropyl-1H-pyrazol-3-yl)-4-(3-methoxypiperidin-1-yl)-5-methyl-2-(1-methyl-1H-imidazol-2-yl)thieno[2,3-d]pyrimidine] |  |  |  |  |  | 76 to 100% | 26 to 45% |  | 46 to 75% |  | 26 to 45% | 46 to 75%
COCC1CN(c2nc(-c3nccn3C)nc3sc(-c4ccn(C(C)C)n4)c(C)c23)CCO1 (racemic) [Compound 15, 4-(6-(1-Isopropyl-1H-pyrazol-3-yl)-5-methyl-2-(1-methyl-1H-imidazol-2-yl)thieno[2,3-d]pyrimidin-4-yl)-2-(methoxymethyl)morpholine] |  | 76 to 100% | D (D = 76-100% inhibition) | 76 to 100% | D (D = 76-100% inhibition) | 76 to 100% | 46 to 75% |  | 76 to 100% |  | 76 to 100% | 26 to 45%
COCCO[C@H]1CC[C@@H](Nc2nc(-c3nccn3C)nc3sc(-c4ccn(C(C)C)n4)c(C)c23)C1 (racemic) [Compound 20, rac-6-(1-Isopropyl-1H-pyrazol-3-yl)-N-((1R,3S)-3-(2-methoxyethoxy)cyclopentyl)-5-methyl-2-(1-methyl-1H-imidazol-2-yl)thieno[2,3-d]pyrimidin-4-amine] |  | 76 to 100% | D (D = 76-100% inhibition) | 76 to 100% | D (D = 76-100% inhibition) | 76 to 100% | 76 to 100% |  | 46 to 75% |  | 46 to 75% | 1 to 25%

Now from value to compound, other results behind:

pIC50 (Smad2/3 phosphorylation; PANC-1, TGF-b1 stimulated) | inhibition at 20 µM (KRas G12D mutant; [1]) | KRas G12D mutant + SOS: % inh. (KRas G12D mutant; + SOS) | inhibition at 20 µM (KRas G12D mutant; [2]) | KRas G12D mutant: % inh. (KRas G12D mutant; without SOS) | inhibition at 20 µM (KRas G12C mutant; [3]) | inhibition at 20 µM (KRas G12C mutant; [4]) | inhibition at 20 µM (Rac-1; [5]) | inhibition at 20 µM (Rac-1; [6]) | inhibition at 20 µM (Rho-A; [7]) | inhibition at 20 µM (Rho-A; [8]) | Structure (SMILES) | inhibition at 10 µM (Smad2/3 phosphorylation)
 | 76 to 100% | D (D = 76-100% inhibition) | 46 to 75% | C (C = 46-75% inhibition) | 76 to 100% | 46 to 75% |  | 76 to 100% |  | 46 to 75% | Cc1c(-c2ccn(C(C)C)n2)sc2nc(-c3nccn3C)nc(NCC3COCCN3C)c12 (racemic) [Compound 24, rac-6-(1-Isopropyl-1H-pyrazol-3-yl)-5-methyl-2-(1-methyl-1H-imidazol-2-yl)-N-((4-methylmorpholin-3-yl)methyl)thieno[2,3-d]pyrimidin-4-amine] | 0%
 | 76 to 100% | D (D = 76-100% inhibition) | 76 to 100% | D (D = 76-100% inhibition) | 76 to 100% | 76 to 100% |  | 76 to 100% |  | 76 to 100% | Cc1c(-c2ccn(C(C)C)n2)sc2nc(-c3nccn3C)nc(NCC3CN(C)CCO3)c12 (racemic) [Compound 25, rac-6-(1-Isopropyl-1H-pyrazol-3-yl)-5-methyl-2-(1-methyl-1H-imidazol-2-yl)-N-((4-methylmorpholin-2-yl)methyl)thieno[2,3-d]pyrimidin-4-amine] | 0%
 | 46 to 75% | C (C = 46-75% inhibition) | 76 to 100% | D (D = 76-100% inhibition) | 76 to 100% | 76 to 100% |  | 46 to 75% |  | 76 to 100% | Cc1c(-c2ccn(C(C)C)n2)sc2nc(-c3nccn3C)nc(NCC3CCCO3)c12 (racemic) [Compound 26, rac-6-(1-Isopropyl-1H-pyrazol-3-yl)-5-methyl-2-(1-methyl-1H-imidazol-2-yl)-N-((tetrahydrofuran-2-yl)methyl)thieno[2,3-d]pyrimidin-4-amine] | 0%
